Activity, IC50 and MIC data for two compounds are collected here from ChEMBL document CHEMBL3352628, “Stereochemical modification of geminal dialkyl substituents on pantothenamides alters antimicrobial activity” (Bioorg Med Chem Lett, 2014).

In brackets after ≈: the same amount, converted by molar mass. Activity calls are given as the source filed them. The calls are words filed in the database; no cut-off is given here.

The subject of one series is HFF. Kind of series: Cytotoxicity against HFF cells at 1 to 100 uM after 48 hrs by SYBR Safe DNA gel staining based assay. Type of series: cell-based. To be noted: human.
Series [1] deals with Plasmodium falciparum. Kind of series: Antimicrobial activity against chloroquine-sensitive Plasmodium falciparum 3D7 ring stage parasite assessed as reduction in parasite proliferation after 96 hrs in presence of 1 uM pantothenate by SYBR Safe DNA gel staining based assay. Type of series: functional, organism-based. The settings on record: 3D7, 96 h.
In series [2] the test system is Staphylococcus aureus. Kind of series: Antimicrobial activity against oxacillin-susceptible Staphylococcus aureus ATCC 29213 after 18 hrs by microdilution broth method. The series is classed as functional. The settings on record: ATCC 29213, 18 h. On the technique in general: In broth dilution the organism is exposed to a series of concentrations in liquid medium.

Series [3] deals with Staphylococcus aureus. Put plainly: Antimicrobial activity against oxacillin-resistant Staphylococcus aureus 43300 at 500 uM after 18 hrs by microdilution broth method. Type of series: functional, organism-based.
The test system of series [4] is Plasmodium falciparum. Kind of series: Antimicrobial activity against chloroquine-sensitive Plasmodium falciparum 3D7 ring stage parasite assessed as reduction in parasite proliferation after 96 hrs in presence of 50 uM pantothenate by SYBR Safe DNA gel staining based assay. The settings on record: 3D7, 96 h. The series is classed as functional, organism-based.
Series [5] concerns Staphylococcus aureus. Kind of series: Antimicrobial activity against oxacillin-susceptible Staphylococcus aureus ATCC 29213 at 500 uM after 18 hrs by microdilution broth method. The series is classed as functional, organism-based.
In series [6] the test system is Staphylococcus aureus. Put plainly: Antimicrobial activity against oxacillin-resistant Staphylococcus aureus 43300 after 18 hrs by microdilution broth method. Type of series: functional. The settings on record: Staphylococcus aureus, 43300, 18 h.

As for `C=CC[C@](C)(CO)[C@@H](O)C(=O)NCCC(=O)NCCCCC`, in the series on HFF, the Activity result is listed as “Non-toxic”. Further, in the series on Plasmodium falciparum [1], the IC50 (commonly the midpoint of a concentration-inhibition curve) was determined as 31 µM.

With `C=CC[C@@](C)(CO)[C@@H](O)C(=O)NCCC(=O)NCCCCC`, the Activity result in the series with HFF was “Non-toxic”. Also, the MIC against Staphylococcus aureus [2] and in the series with Staphylococcus aureus [6] was 3.2 µM (≈ 1.01 µg/mL) in each case. The outcome in the series on Staphylococcus aureus [3] and in the series on Staphylococcus aureus [5] was inactive. For the same compound, the values for the IC50 in the series with Plasmodium falciparum [1] and with Plasmodium falciparum [4] were 2.4 µM and 13 µM, respectively.
